Results from US10653146B2, “Microbiocidal oxadiazole derivatives” (SYNGENTA PARTICIPATIONS AG, priority 2016, dated 2020).

Columns and labels:
[1] = system: Puccinia recondita f. Sp. Tritici; experiment: Fungicidal activity against Puccinia recondita f. sp. tritici / wheat / leaf disc preventative (brown rust); format: in vivo; settings: foliar, 200 ppm in the applied formulation, wheat leaf segments cv. Kanzler, inoculated 1 day after application, assessed 7 to 9 days after application, read-out: disease control compared to untreated control leaf disks
Method: Leaf disks or leaf segments of various plant species are cut from plants grown in a greenhouse. The cut leaf disks or segments are placed in multiwell plates (24-well format) onto water agar. The leaf disks are sprayed with a test solution before (preventative) or after (curative) inoculation. Compounds to be tested are prepared as DMSO solutions (max. 10 mg/ml) which are diluted to the appropriate concentration with 0.025% Tween20 just before spraying. The inoculated leaf disks or segments are incubated under defined conditions (temperature, relative humidity, light, etc.) according to the respective test system. A single evaluation of disease level is carried out 3 to 14 days after inoculation, depending on the pathosystem. Percent disease control relative to the untreated check leaf disks or segments is then calculated. Wheat leaf segments cv. Kanzler were placed on agar in multiwell plates (24-well format) and sprayed with the formulated test compound diluted in water. The leaf disks were inoculated with a spore suspension of the fungus 1 day after application. The inoculated leaf segments were incubated at 19° C. and 75% relative humidity (rh) under a light regime of 12 hours light/12 hours darkness in a climate cabinet and the activity of a compound was assessed as percent disease control compared to untreated when an appropriate level of disease damage appears in untreated check leaf segments (7 to 9 days after application). The following compounds at 200 ppm in the applied formulation give at least 80% disease control in this test when compared to untreated control leaf disks under the same conditions, which show extensive disease development.

[2] = system: Glomerella lagenarium (Colletotrichum lagenarium); experiment: Fungicidal activity against Glomerella lagenarium (Colletotrichum lagenarium) liquid culture / cucumber / preventative (anthracnose); format: cell-based; settings: Colletotrichum orbiculare; 20 ppm in the applied formulation; liquid culture in PDB, 24° C.; 3 to 4 days after application; read-out: disease control compared to untreated control (inhibition of growth measured photometrically)
Method: Mycelia fragments or conidia suspensions of a fungus prepared either freshly from liquid cultures of the fungus or from cryogenic storage, are directly mixed into nutrient broth. DMSO solutions of the test compound (max. 10 mg/ml) are diluted with 0.025% Tween20 by a factor of 50 and 10 μl of this solution is pipetted into a microtiter plate (96-well format). The nutrient broth containing the fungal spores/mycelia fragments is then added to give an end concentration of the tested compound. The test plates are incubated in the dark at 24° C. and 96% relative humidity. The inhibition of fungal growth is determined photometrically after 2 to 7 days, depending on the pathosystem, and percent antifungal activity relative to the untreated check is calculated.
Conidia of the fungus from cryogenic storage are directly mixed into nutrient broth (PDB—potato dextrose broth). After placing a (DMSO) solution of test compound into a microtiter plate (96-well format), the nutrient broth containing the fungal spores is added. The test plates are incubated at 24° C. and the inhibition of growth is measured photometrically 3 to 4 days after application.
The following compounds at 20 ppm in the applied formulation give at least 80% disease control in this test when compared to untreated control under the same conditions, which show extensive disease development.

[3] = system: Puccinia recondite f. Sp. Tritici; experiment: Fungicidal activity against Puccinia recondite f. sp. tritici / wheat / leaf disc curative (brown rust); format: in vivo; settings: foliar, 200 ppm in the applied formulation, wheat leaf segments cv. Kanzler, applied 1 day after inoculation, assessed 6 to 8 days after application, read-out: disease control compared to untreated control leaf disks
Method: (§1) Leaf disks or leaf segments of various plant species are cut from plants grown in a greenhouse. The cut leaf disks or segments are placed in multiwell plates (24-well format) onto water agar. The leaf disks are sprayed with a test solution before (preventative) or after (curative) inoculation. Compounds to be tested are prepared as DMSO solutions (max. 10 mg/ml) which are diluted to the appropriate concentration with 0.025% Tween20 just before spraying. The inoculated leaf disks or segments are incubated under defined conditions (temperature, relative humidity, light, etc.) according to the respective test system. A single evaluation of disease level is carried out 3 to 14 days after inoculation, depending on the pathosystem. Percent disease control relative to the untreated check leaf disks or segments is then calculated.
Wheat leaf segments cv. Kanzler are placed on agar in multiwell plates (24-well format). The leaf segments are then inoculated with a spore suspension of the fungus. Plates were stored in darkness at 19° C. and 75% relative humidity. The formulated test compound diluted in water was applied 1 day after inoculation. The leaf segments were incubated at 19° C. and 75% relative humidity under a light regime of 12 hours light/12 hours darkness in a climate cabinet and the activity of a compound was assessed as percent disease control compared to untreated when an appropriate level of disease damage appears in untreated check leaf segments (6 to 8 days after application).
(§2) The following compounds at 200 ppm in the applied formulation give at least 80% disease control in this test when compared to untreated control leaf disks under the same conditions, which show extensive disease development.

Phakopsora pachyrhizi = experiment: Fungicidal activity against Phakopsora pachyrhizi / soybean / leaf disc preventative (Asian soybean rust); format: in vivo; settings: foliar, 200 ppm in the applied formulation, soybean leaf disks, inoculated one day after application, assessed 12 to 14 days after application, read-out: disease control compared to untreated control leaf disks
Method: as §1
Soybean leaf disks are placed on water agar in multiwell plates (24-well format) and sprayed with the formulated test compound diluted in water. One day after application leaf discs are inoculated by spraying a spore suspension on the lower leaf surface. After an incubation period in a climate cabinet of 24-36 hours in darkness at 20° C. and 75% rh leaf disc are kept at 20° C. with 12 h light/day and 75% rh. The activity of a compound is assessed as percent disease control compared to untreated when an appropriate level of disease damage appears in untreated check leaf disks (12 to 14 days after application).
as §2

melting point [°C] | SMILES | pest or weed control at 200 ppm [1] [%] | inhibition at 20 ppm [2] [%] | pest or weed control at 200 ppm [3] [%] | pest or weed control at 200 ppm (Phakopsora pachyrhizi) [%]
96 to 97.7 | CC(C)NC(=O)C(=O)c1ccc(-c2noc(C(F)(F)F)n2)cc1 [Compound 1.13, N-isopropyl-2-oxo-2-[4-[5-(trifluoromethyl)-1,2,4-oxadiazol-3-yl]phenyl]acetamide] | ≥ 80 | ≥ 80 | ≥ 80 | –
143.6 to 147.6 | N#CCNC(=O)C(=O)c1ccc(-c2noc(C(F)(F)F)n2)cc1 [Compound 1.14, N-(cyanomethyl)-2-oxo-2-[4-[5-(trifluoromethyl)-1,2,4-oxadiazol-3-yl]phenyl]acetamide] | ≥ 80 | ≥ 80 | ≥ 80 | –
83 to 85.3 | CC(C)CNC(=O)C(=O)c1ccc(-c2noc(C(F)(F)F)n2)cc1 [Compound 1.15, N-isobutyl-2-oxo-2-[4-[5-(trifluoromethyl)-1,2,4-oxadiazol-3-yl]phenyl]acetamide] | ≥ 80 | ≥ 80 | ≥ 80 | –
113.1 to 116 | O=C(NC1CC1)C(=O)c1ccc(-c2noc(C(F)(F)F)n2)cc1 [Compound 1.16, N-cyclopropyl-2-oxo-2-[4-[5-(trifluoromethyl)-1,2,4-oxadiazol-3-yl]phenyl]acetamide] | ≥ 80 | ≥ 80 | ≥ 80 | –
128.1 to 130.8 | CNC(=O)C(=O)c1ccc(-c2noc(C(F)(F)F)n2)cc1 [Compound 1.17, N-methyl-2-oxo-2-[4-[5-(trifluoromethyl)-1,2,4-oxadiazol-3-yl]phenyl]acetamide] | ≥ 80 | ≥ 80 | ≥ 80 | –
146.7 to 149.7 | NC(=O)C(=O)c1ccc(-c2noc(C(F)(F)F)n2)cc1 [Compound 1.18, 2-oxo-2-[4-[5-(trifluoromethyl)-1,2,4-oxadiazol-3-yl]phenyl]acetamide] | ≥ 80 | ≥ 80 | ≥ 80 | –
134 to 138 | CN(C)NC(=O)C(=O)c1ccc(-c2noc(C(F)(F)F)n2)cc1 [Compound 1.19, N′,N′-dimethyl-2-oxo-2-[4-[5-(trifluoromethyl)-1,2,4-oxadiazol-3-yl]phenyl]aceto-hydrazide] | ≥ 80 | ≥ 80 | ≥ 80 | –
104 to 110 | O=C(C(=O)N1CCCC1)c1ccc(-c2noc(C(F)(F)F)n2)cc1 [Compound 1.20, 1-pyrrolidin-1-yl-2-[4-[5-(trifluoromethyl)-1,2,4-oxadiazol-3-yl]phenyl]ethane-1,2-dione] | ≥ 80 | ≥ 80 | ≥ 80 | –
162 to 165 | CCN1OCC(NC(=O)C(=O)c2ccc(-c3noc(C(F)(F)F)n3)cc2)C1=O (stereo not drawn) [Compound 1.21, N-(2-ethyl-3-oxo-isoxazolidin-4-yl)-2-oxo-2-[4-[5-(trifluoromethyl)-1,2,4-oxadiazol-3-yl]phenyl]acetamide] | ≥ 80 | ≥ 80 | ≥ 80 | ≥ 80
118 to 120 | COc1cccc(NC(=O)C(=O)c2ccc(-c3noc(C(F)(F)F)n3)cc2)n1 [Compound 1.24, N-(6-methoxy-2-pyridyl)-2-oxo-2-[4-[5-(trifluoromethyl)-1,2,4-oxadiazol-3-yl]phenyl]acetamide] | ≥ 80 | ≥ 80 | – | ≥ 80
71 to 74 | C=CCNC(=O)C(=O)c1ccc(-c2noc(C(F)(F)F)n2)cc1 [Compound 1.25, N-allyl-2-oxo-2-[4-[5-(trifluoromethyl)-1,2,4-oxadiazol-3-yl]phenyl]acetamide] | ≥ 80 | ≥ 80 | ≥ 80 | ≥ 80
84 to 86 | O=C(NCc1ccccc1F)C(=O)c1ccc(-c2noc(C(F)(F)F)n2)cc1 [Compound 1.26, N-[(2-fluorophen-yl)methyl]-2-oxo-2-[4-[5-(trifluoromethyl)-1,2,4-oxadiazol-3-yl]phenyl]acetamide] | ≥ 80 | ≥ 80 | ≥ 80 | –
131 to 136 | O=C(NC1COC1)C(=O)c1ccc(-c2noc(C(F)(F)F)n2)cc1 [Compound 1.27, N-(oxetan-3-yl)-2-oxo-2-[4-[5-(trifluoromethyl)-1,2,4-oxadiazol-3-yl]phenyl]acetamide] | ≥ 80 | ≥ 80 | ≥ 80 | –
140 to 144 | O=C(C(=O)N1CCOCC1)c1ccc(-c2noc(C(F)(F)F)n2)cc1 [Compound 1.35, 1-morpholino-2-[4-[5-(trifluoromethyl)-1,2,4-oxadiazol-3-yl]phenyl]ethane-1,2-dione] | ≥ 80 | ≥ 80 | ≥ 80 | –
155 to 156 | CC(C)(C)OC(=O)NCCNC(=O)C(=O)c1ccc(-c2noc(C(F)(F)F)n2)cc1 [Compound 1.37, tert-butyl N-[2-[[2-oxo-2-[4-[5-(trifluoromethyl)-1,2,4-oxadiazol-3-yl]phenyl]acet-yl]amino]eth-yl]carbamate] | ≥ 80 | – | – | ≥ 80
88 to 89 | COC(CNC(=O)C(=O)c1ccc(-c2noc(C(F)(F)F)n2)cc1)OC [Compound 1.38, N-(2,2-dimethoxyethyl)-2-oxo-2-[4-[5-(trifluoromethyl)-1,2,4-oxadiazol-3-yl]phenyl]acetamide] | ≥ 80 | ≥ 80 | ≥ 80 | –
– | CCCNC(=O)C(=O)c1ccc(-c2noc(C(F)(F)F)n2)cc1 [Compound 1.42, 2-oxo-N-propyl-2-[4-[5-(trifluoromethyl)-1,2,4-oxadiazol-3-yl]phenyl]acetamide] | ≥ 80 | ≥ 80 | ≥ 80 | ≥ 80
